# Experimental data as given in patent publication US20250241901A1, “ACTIVATION OF MNRR1 / CHCHD2 AS A THERAPEUTIC TARGET FOR MITOCHONDRIA ASSOCIATED DISORDERS” (Wayne State University, priority 2024, published 2025).
# Columns and labels:
# Format in all cases: cell-based, human
# [1] = test system: RBPJk; test: COX412-luciferase dual luciferase reporter assay in MELAS cybrid cells overexpressing MNRR1; conditions: MELAS cybrid cells overexpressing MNRR1, 0.5 μM
# From the text: FIGS. 12A-12C: FIG. 12A: Dual luciferase reporter assay showing relative activation of MNRR1-luciferase levels in MELAS cybrid cells overexpressing varying proportions of empty vector (EV) and constitutively active RBPJk (RBP-CA). FIG. 12B: Dual luciferase reporter assay showing relative activation of MNRR1-luciferase levels in MELAS cybrid cells overexpressing an empty vector (EV) or constitutively active RBPJk (RBP-CA) and HIF2α. FIG. 12C: Dual luciferase reporter assay showing relative activation of COX412-luciferase levels in MELAS cybrid cells overexpressing an empty vector (EV), MNRR1, and MNRR1+Auranofin (0.5 μM).
# Luciferase reporter assay: Luciferase assays were performed with the dual-luciferase reporter assay kit (Promega). Briefly, cells were lysed in 1× passive lysis buffer (Promega) and 25 μL of lysate was used for assay with a tube luminometer using an integration time of 10 s. Transfection efficiency was normalized with the co-transfected pRL-SV40 Renilla luciferase expression plasmid.
# [2] = test system: MNRR1; test: MNRR1 protein levels in MELAS cybrid cells (immunoblot); conditions: MELAS cybrid cells, 10 μM, 24 h
# Procedure: FIGS. 6A-6C: FIG. 6A: Above, Chemical structures of nitazoxanide, its metabolites, and similar compounds. Abbreviations: P4, Phenyl-4-aminosalicylic acid; 4ABA, 4-Aminobenzanilide; 4ASA, 4-Amino salicylic acid; BA, Benzanilide; PBO, Phenyl benzoate; PSA, Phenyl salicylic acid; 2AN, 2-Amino 5-nitrothiazole. Below, Equal amounts of lysates of MELAS cells treated with Vehicle (DMSO) or the various compounds (10 μM) for 24 h were separated on an SDS-PAGE gel and probed for MNRR1 levels. Actin was probed as a loading control and numbers below represent an average and SD of 3 biological replicates. FIGS. 6B-6C: MNRR1 transcript levels are shown relative to 18S rRNA (n=4 biological replicates, error bars represent SE). In all figures, * indicates p<0.05, ** indicates p<0.005.
# FIGS. 11A-11F: RBPJk and HIF2α compete for binding at the ORE in the MNRR1 promoter to regulate transcription. FIG. 11A: Chromatin immunoprecipitation-qPCR assessing binding of HIF2α to the endogenous MNRR1 promoter in MELAS cybrid cells with 0% (CL9) and 70% heteroplasmy (DW7). FIG. 11B: Dual luciferase reporter assay showing relative activation of MNRR1-luciferase levels in MELAS cybrid cells overexpressing varying proportions of constitutively active RBPJk (RBP-CA) and HIF2α. FIG. 11C: Dual luciferase reporter assay showing relative activation of MNRR1-luciferase levels in MELAS cybrid cells overexpressing the WT (FIG. 9A) or ΔORE (positions 47-53 in SEQ ID NO: 25 in FIG. 9C) promoter with EV (dotted line) or HIF2α. FIG. 11D: Equal amounts of Control or HIFα knockdown (KD) MELAS cybrid cell lysates were separated on an SDS-PAGE gel and probed for HIF2α and MNRR1 levels. Tubulin was probed as loading control. FIG. 11E: Oxygen consumption measured from Control or HIFα knockdown (KD) MELAS cybrid cells. (n=4 biological replicates, error bars represent SE). FIG. 11F: Left, Oxygen consumption measured from MELAS cybrid cells treated with vehicle (DMSO) or PT2385 (10 μM), an inhibitor of HIF2α function, for 24 h. Right, Equal amounts of MELAS cybrid cell lysates treated with vehicle (DMSO) or PT2385 (10 μM) for 24 h, separated on an SDS-PAGE gel, and probed for MNRR1 levels. GAPDH was probed as a loading control.
# Immunoblotting: Immunoblotting was performed as described previously. Cell lysates for immunoblotting were prepared using RIPA buffer (Abcam, Waltham, MA) and included a protease and phosphatase inhibitor cocktail (Sigma, St. Louis, MO). […] The clear supernatants were transferred to new tubes and quantified using the Bradford reagent with BSA as standard (BioRad, Hercules. CA). […] For detection after immunoblotting, the SuperSignal™ West Pico PLUS substrate (ThermoFisher, Waltham, MA) was used to generate chemiluminescence signal, which was detected with X-Ray film (RadTech, Vassar, MI).
# [3] = test system: MELAS cybrid cells; test: Oxygen consumption of MELAS cybrid cells (Seahorse); conditions: 10 μM, 24 h
# Procedure: FIGS. 7A-7E: MNRR1 activation by tizoxanide enhances mtDNA biogenesis and mitophagy to shift heteroplasmy in MELAS cells. FIG. 7A: Oxygen consumption measured from MELAS cybrid cells treated with vehicle (DMSO) or tizoxanide (10 μM) for 48 h (n=4 biological replicates, error bars represent SE). FIG. 7B: Haelll restriction enzyme digestion of a PCR-amplified fragment of mtDNA harboring the m.3243A>G mutation from DW7 cells treated with vehicle (DMSO) or tizoxanide (10 μM) for 144 h. […] FIG. 7C: Genes identified using qPCR of MELAS cybrid cells stably overexpressing EV or MNRR1. FIG. 7D: MtDNA levels are shown relative to nuclear DNA (nDNA) (GAPDH) (n=5 biological replicates, error bars represent SE). […]
# FIGS. 11A-11F: RBPJk and HIF2α compete for binding at the ORE in the MNRR1 promoter to regulate transcription. […] FIG. 11E: Oxygen consumption measured from Control or HIFα knockdown (KD) MELAS cybrid cells. […] FIG. 11F: Left, Oxygen consumption measured from MELAS cybrid cells treated with vehicle (DMSO) or PT2385 (10 μM), an inhibitor of HIF2α function, for 24 h. […]
# Intact cellular oxygen consumption and measurement of ATP: Cellular oxygen consumption was measured with a Seahorse XFe24 Bioanalyzer (Agilent). Cells were plated at a concentration of 3.5×10^4 per well a day prior to treatment and basal oxygen consumption was measured 48 h after treatments, as described. […]
smiles,measurement,setting,value
"CC(=O)OC[C@H]1O[C@@H]([S-])[C@H](OC(C)=O)[C@@H](OC(C)=O)[C@@H]1OC(C)=O.CCP(CC)CC.[Au+] [Auranonfin, Auranofin]",MNRR1 induced transcription (COX412-luciferase),[1],able to block the effects of MNRR1 induced transcription
CS(=O)(=O)c1ccc(Oc2cc(F)cc(C#N)c2)c2c1[C@H](O)C(F)(F)C2 [PT2385],MNRR1 protein,[2],rebound increase
same,OCR,[3],rebound increase
